From patent US12552783B2, “Modulators of proteolysis and associated methods of use” (Arvinas Operations, Inc., priority 2018, dated 2026)

Biological target: KRas (Homo sapiens, UniProt P01116, G12C)
Assay: KRas degradation in NCI-H2030 cells by Western blot, normalized to GAPDH (data of Table 14)
Format: cell-based
Design: host or cells: NCI-H2030
Conditions: for Dmax: NCI-H2030; for Percent Degradation at Indicated Concentration (μM): H2030; for Percent Degradation at Indicated Concentration (μM): 0.1: 0.1 μM
Procedure, shortened: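 Readout: GAPDH-normalized KRas immunoblot signal, expressed as percent degradation versus 0.1% DMSO vehicle. Treatment: 0.3, 1, 3 μM after 24 h starvation; 24 h (VHL-based) or 72 h (others).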

SMILES | Percent Degradation at Indicated Concentration (μM): 0.3 (H2030 cells, 0.3 μM) | Percent Degradation at Indicated Concentration (μM): 1 (H2030 cells, 1 μM) | Percent Degradation at Indicated Concentration (μM): 3 (H2030 cells, 3 μM) | Dmax (H2030 cells) | Percent Degradation at Indicated Concentration (μM) (0.3 μM) | Percent Degradation at Indicated Concentration (μM) (1 μM) | Percent Degradation at Indicated Concentration (μM) (3 μM) | Dmax | Percent Degradation at Indicated Concentration (μM): 0.1 (H2030 cells)
C=CC(=O)N1CCN(c2nc(NCCC(=O)N(C)CCOCCOCCOc3ccc4c(c3)CN(C3CCC(=O)NC3=O)C4=O)nc3c(F)c(-c4cc(O)cc5ccccc45)c(Cl)cc23)CC1 (centres unmarked) [compound 66, 3-((4-(4-acryloylpiperazin-1-yl)-6-chloro-8-fluoro-7-(3-hydroxynaphthalen-1-yl)quinazolin-2-yl)amino)-N-(2-(2-(2-((2-(2,6-dioxopiperidin-3-yl)-1-oxoisoindolin-5-yl)oxy)ethoxy)ethoxy)ethyl)-N-methylpropanamide] | C (C ≤ 35) | C (C ≤ 35) | C (C ≤ 35) | ≤ 35% |  |  |  |  | 
CCC(=O)N1CCN(c2nc(NCCC(=O)N(C)CCOCCOCCOCCOc3cc(-c4scnc4C)ccc3CNC(=O)[C@@H]3C[C@@H](O)CN3C(=O)[C@H](c3cc(C)no3)C(C)C)nc3c(F)c(-c4cc(O)cc5ccccc45)c(Cl)cc23)CC1 [compound 335, (2S,4R)-N-(2-((15-((6-chloro-8-fluoro-7-(3-hydroxynaphthalen-1-yl)-4-(4-propionylpiperazin-1-yl)quinazolin-2-yl)amino)-12-methyl-13-oxo-3,6,9-trioxa-12-azapentadecyl)oxy)-4-(4-methylthiazol-5-yl)benzyl)-4-hydroxy-1-((S)-3-methyl-2-(3-methylisoxazol-5-yl)butanoyl)pyrrolidine-2-carboxamide] | C (C ≤ 35) | C (C ≤ 35) | C (C ≤ 35) | ≤ 35% |  |  |  |  | 
CC(=O)N1CCN(c2nc(NCCC(=O)N(C)CCOCC(=O)N[C@H](C(=O)N3C[C@H](O)C[C@H]3C(=O)N[C@@H](C)c3ccc(-c4scnc4C)cc3)C(C)(C)C)nc3c(F)c(-c4cc(O)cc5ccccc45)c(Cl)cc23)CC1 [compound 200, (2S,4R)-1-((2S)-2-(2-(2-(3-((4-(4-acetylpiperazin-1-yl)-6-chloro-8-fluoro-7-(3-hydroxynaphthalen-1-yl)quinazolin-2-yl)amino)-N-methylpropanamido)ethoxy)acetamido)-3,3-dimethylbutanoyl)-4-hydroxy-N-((S)-1-(4-(4-methylthiazol-5-yl)phenyl)ethyl)pyrrolidine-2-carboxamide] |  |  |  |  | C (Percent Degradation: C ≤ 35) | C (Percent Degradation: C ≤ 35) | C (Percent Degradation: C ≤ 35) | ≤ 35% | 
C=CC(=O)N1CCN(c2nc(NCCC(=O)N(C)CCOCCNC(=O)c3ccc(NC(=O)[C@@H]4N[C@@H](CC(C)(C)C)[C@](C#N)(c5ccc(Cl)cc5F)[C@H]4c4cccc(Cl)c4F)c(OC)c3)nc3c(F)c(-c4c(O)cccc4F)c(Cl)cc23)CC1 (atropisomer, axis not shown) [compound 307, (2R,3S,4R,5S)-N-(4-((2-(2-(3-((4-(4-acryloylpiperazin-1-yl)-6-chloro-8-fluoro-7-((S)-2-fluoro-6-hydroxyphenyl)quinazolin-2-yl)amino)-N-methylpropanamido)ethoxy)eth-yl)carbamoyl)-2-methoxyphenyl)-3-(3-chloro-2-fluorophenyl)-4-(4-chloro-2-fluorophenyl)-4-cyano-5-neopentylpyrrolidine-2-carboxamide] |  |  |  |  | C (Percent Degradation: C ≤ 35) | C (Percent Degradation: C ≤ 35) | C (Percent Degradation: C ≤ 35) | ≤ 35% | 
CCC(=O)N1CCN(c2nc(NCCC(=O)N(C)CCOCCOCCOc3cc(-c4scnc4C)ccc3CNC(=O)[C@@H]3C[C@@H](O)CN3C(=O)[C@@H](c3cc(C)no3)C(C)C)nc3c(F)c(-c4cc(O)cc5ccccc45)c(Cl)cc23)CC1 [compound 332, (2S,4R)-N-(2-(2-(2-(2-(3-((6-chloro-8-fluoro-7-(3-hydroxynaphthalen-1-yl)-4-(4-propionylpiperazin-1-yl)quinazolin-2-yl)amino)-N-methylpropanamido)ethoxy)ethoxy)-ethoxy)-4-(4-methylthiazol-5-yl)benzyl)-4-hydroxy-1-((R)-3-methyl-2-(3-methylisoxazol-5-yl)butanoyl)pyrrolidine-2-carboxamide] | C (C ≤ 35) | C (C ≤ 35) | C (C ≤ 35) | ≤ 35% |  |  |  |  | 
O=C1CCC(N2C(=O)c3ccc(OCCOCCOCCOCC/C=C/C(=O)N4CCN(c5ncnc6c(F)c(-c7cc(O)cc8ccccc78)c(Cl)cc56)CC4)cc3C2=O)C(=O)N1 (centres unmarked) [compound 170, (E)-5-(2-(2-(2-((5-(4-(6-chloro-8-fluoro-7-(3-hydroxynaphthalen-1-yl)quinazolin-4-yl)piperazin-1-yl)-5-oxopent-3-en-1-yl)oxy)ethoxy)ethoxy)ethoxy)-2-(2,6-dioxopiperidin-3-yl)isoindoline-1,3-dione] |  |  |  |  | C (Percent Degradation: C ≤ 35) | C (Percent Degradation: C ≤ 35) | C (Percent Degradation: C ≤ 35) | ≤ 35% | 
C=CC(=O)N1CCN(c2nc(OCCCN(C)CCOCCOCCOCCOCC(=O)N[C@H](C(=O)N3C[C@H](O)C[C@H]3C(=O)N[C@@H](C)c3ccc(-c4scnc4C)cc3)C(C)(C)C)nc3c(F)c(-c4cc(O)cc5ccccc45)c(Cl)cc23)CC1 [compound 497, (2S,4R)-1-((2S)-21-((4-(4-acryloylpiperazin-1-yl)-6-chloro-8-fluoro-7-(3-hydroxynaphthalen-1-yl)quinazolin-2-yl)oxy)-2-(tert-butyl)-18-methyl-4-oxo-6,9,12,15-tetraoxa-3,18-diazahenicosanoyl)-4-hydroxy-N-((S)-1-(4-(4-methylthiazol-5-yl)phenyl)ethyl)pyrrolidine-2 carboxamide] |  |  |  |  | C (Percent Degradation: C ≤ 35) | C (Percent Degradation: C ≤ 35) | C (Percent Degradation: C ≤ 35) | ≤ 35% | 
C=CC(=O)N1CCN(c2nc(NCCC(=O)N(C)CCOCCOCCOCCOCCOc3ccc4c(c3)C(=O)N(C3CCC(=O)NC3=O)C4=O)nc3c(F)c(-c4cc(O)cc5ccccc45)c(Cl)cc23)CC1 (centres unmarked) [compound 63, 3-((4-(4-acryloylpiperazin-1-yl)-6-chloro-8-fluoro-7-(3-hydroxynaphthalen-1-yl)quinazolin-2-yl)amino)-N-(14-((2-(2,6-dioxopiperidin-3-yl)-1,3-dioxoisoindolin-5-yl)oxy)-3,6,9,12-tetraoxatetradecyl)-N-methylpropanamide] | C (C ≤ 35) | C (C ≤ 35) |  | ≤ 35% |  |  |  |  | C (C ≤ 35)
C=CC(=O)N1CCN(c2nc(NCCC(=O)N(C)CCOCCOc3cc(-c4scnc4C)ccc3CNC(=O)[C@@H]3C[C@@H](O)CN3C(=O)[C@@H](c3cc(C)no3)C(C)C)nc3c(F)c(-c4cc(O)cc5ccccc45)c(Cl)cc23)CC1 [compound 339] | C (C ≤ 35) | C (C ≤ 35) | C (C ≤ 35) | ≤ 35% |  |  |  |  | 
C=CC(=O)N1CCN(c2nc(NCCC(=O)N(C)CCNc3cccc4c3C(=O)N(C3CCC(=O)NC3=O)C4=O)nc3c(F)c(-c4cc(O)cc5ccccc45)c(Cl)cc23)CC1 (centres unmarked) [compound 55, 3-((4-(4-acryloylpiperazin-1-yl)-6-chloro-8-fluoro-7-(3-hydroxynaphthalen-1-yl)quinazolin-2-yl)amino)-N-(2-((2-(2,6-dioxopiperidin-3-yl)-1,3-dioxoisoindolin-4-yl)amino)ethyl)-N-methylpropanamide] | C (C ≤ 35) | C (C ≤ 35) |  | ≤ 35% |  |  |  |  | C (C ≤ 35)
C=CC(=O)N1CCN(c2nc(NCCC(=O)N(C)CCOCCOCCOCCOCCNC(=O)c3ccc(NC(=O)[C@@H]4N[C@@H](CC(C)(C)C)[C@](C#N)(c5ccc(Cl)cc5F)[C@H]4c4cccc(Cl)c4F)c(OC)c3)nc3c(F)c(-c4cc(O)cc5ccccc45)c(Cl)cc23)CC1 [compound 304, (2R,3S,4R,5S)-N-(4-((18-((4-(4-acryloylpiperazin-1-yl)-6-chloro-8-fluoro-7-(3-hydroxynaphthalen-1-yl)quinazolin-2-yl)amino)-15-methyl-16-oxo-3,6,9,12-tetraoxa-15-azaoctadecyl)carbamoyl)-2-methoxyphenyl)-3-(3-chloro-2-fluorophenyl)-4-(4-chloro-2-fluorophenyl)-4-cyano-5-neopentylpyrrolidine-2-carboxamide] |  |  |  |  | C (Percent Degradation: C ≤ 35) | C (Percent Degradation: C ≤ 35) | C (Percent Degradation: C ≤ 35) | ≤ 35% | 
